pIC50: −log10 of the molar value.
Legend:
[1] = tested on: HIV mutants that are resistant to other integrase inhibitors; assay: Antiviral activity against HIV mutants resistant to other integrase inhibitors; assay type: cell-based
HIV = assay: Antiviral potency in the presence of human serum proteins; assay type: cell-based; details: relative to closely related N-benzyl-8-hydroxy-1,6-naphthyridine carboxamide integrase inhibitors without ortho polar substituent
[2] = molecular target: T1, HIV integrase (recombinant integrase) (Human immunodeficiency virus type 1 group M subtype B, UniProt P04585); assay: HIV integrase assay: strand transfer catalyzed by recombinant integrase; assay type: biochemical
T1 construct: HIV Integrase Assay: Strand Transfer Catalyzed by Recombinant Integrase
Protocol: HIV Integrase Assay: Strand Transfer Catalyzed by Recombinant Integrase
Assays for the strand transfer activity of integrase were conducted in accordance with the method described in Example 193 of WO 02/30930 for recombinant integrase.
Further description on conducting the assay using preassembled complexes is found in Wolfe, A. L. et al., J. Virol. 1996, 70: 1424-1432, Hazuda et al., J. Virol. 1997, 71: 7005-7011; Hazuda et al., Drug Design and Discovery 1997, 15: 17-24; and Hazuda et al., Science 2000, 287: 646-650.

Compound	antiviral activity against several HIV mutants resistant to other integrase inhibitors [1]	antiviral potency in the presence of human serum proteins (HIV)	pIC50 [2]
CNC(=O)c1cc(F)ccc1CNC(=O)c1nc(N2CCCCS2(=O)=O)c2cccnc2c1O [Compound A, N-{4-fluoro-2-[(methylamino)carbonyl]benzyl}-5-(1,1-dioxido-1,2-thiazinan-2-yl)-8-hydroxy-1,6-naphthyridine-7-carboxamide]	retention of significant antiviral activity	improved	–
CNC(=O)c1cc(F)ccc1CNC(=O)c1nc(N2CCCCS2(=O)=O)c2cccnc2c1O [Example 3, Sodium 5-(1,1-dioxido-1,2-thiazinan-2-yl)-7-[({4-fluoro-2-[(methylamino)carbonyl]-benzyl}amino)carbonyl]-1,6-naphthyridin-8-olate]	–	–	> 6.30
